This is an account of results in patent publication EP0590998A1, “1-Styryl-3-t-butyl-1,3-propanedione derivative and external preparation for skin using the same” (SHISEIDO COMPANY LIMITED, priority 1992, dated 1994).

Data set [1] can be described thus: Solubility of the 10% compounds in silicone base and squalane at room temperature. The format is physicochemical. Also on record: key: The compounds which can completely be dissolved in the solvents are indicated as ○. The settings on record: room temperature (25°C); for SOLUBILITY SILICONE KF56(10%): 10% compound in SILICONE KF56 (10cs); for SOLUBILITY SQUALANE(10%): 10% compound in squalane. The source says:
Solubilities of the following compounds 1 to 5 as examples of the 1-styryl-3-t-butyl-1,3-propanedione derivative and 2-hydroxy-4-methoxybenzophenone as a comparison are examined using the SILICONE KF56 (10cs; SHINETHU KACAKU INC.) as silicone base and squalane. Compound 1 : 1-styryl-3-t-butyl 1,3-propanedione Compound 2 : 1-p-methoxystyryl-3-t-butyl 1,3-propanedione Compound 3 : 1-p-(2-ethylhexyloxy)styryl-3-t-butyl 1,3-propanedione Compound 4 : 1-p-ethylstyryl-3-t-butyl1,3-propanedione compound 5 : 1-m-methylstyryl-3-t-butyl1,3-propanedione
The compounds which can completely be dissolved in the solvents are indicated as ○.

Data set [2] in a line: Ultraviolet ray absorption, spectrophotometer, 10ppm in ethanol. The class given is physicochemical. On the set-up: key: absorbance of 10 ppm ethanol solution, 10 mm quartz cell. The settings on record: 10ppm in ethanol (99.5%), quartz cell 10mm×10mm. Here is the method: Ultraviolet ray absorptivities of the compound 1,3,5 and comparison (2-hydroxy-4-methoxybenzophenone; UV-A absorbent) were measured according to the following method.
The compound 1,3,5 and the comparison compound were dissolved in ethanol (99.5%) so as to the concentration being 10ppm, and absorption were measured by using quartz cell (10mm×10mm) and the spectrophotometer UVIDEC-610 (JASCO CORPORATION).

Structures are written as SMILES.

For the molecule `CC(C)(C)C(=O)CC(=O)C=Cc1ccccc1` [Compound 1, 1-styryl-3-t-butyl 1,3-propanedione], the “SOLUBILITY SILICONE KF56(10%)” value in data set [1] was “○”. Also, in data set [1], the “SOLUBILITY SQUALANE(10%)” value was “○”. The absorption in data set [2] (WAVELENGTH 300) is 0.60; in data set [2] (WAVELENGTH 310) it was 0.82; in data set [2] (WAVELENGTH 320) it was 1.08; in data set [2] (WAVELENGTH 330), 1.33; in data set [2] (WAVELENGTH 340) it was 1.40; in data set [2] (WAVELENGTH 350), 1.24. Moreover, the absorption was determined as 0.96 in data set [2] (WAVELENGTH 360), 0.50 in data set [2] (WAVELENGTH 370) and 0.26 in data set [2] (WAVELENGTH 380).

As for `Cc1cccc(C=CC(=O)CC(=O)C(C)(C)C)c1` [Compound 5, 1-m-methylstyryl-3-t-butyl1,3-propanedione], the “SOLUBILITY SILICONE KF56(10%)” value in data set [1] is on record as “○”. Besides, the “SOLUBILITY SQUALANE(10%)” value in data set [1] was “○”. Further, the absorption in data set [2] (WAVELENGTH 300) came out at 0.50; in data set [2] (WAVELENGTH 310), 0.72; in data set [2] (WAVELENGTH 320), 1.00; in data set [2] (WAVELENGTH 330), 1.26; in data set [2] (WAVELENGTH 340), 1.36; in data set [2] (WAVELENGTH 350) it was 1.24. Besides, the absorption was 0.98 in data set [2] (WAVELENGTH 360), 0.54 in data set [2] (WAVELENGTH 370) and 0.32 in data set [2] (WAVELENGTH 380).

In the case of `CCc1ccc(C=CC(=O)CC(=O)C(C)(C)C)cc1` [Compound 4, 1-p-ethylstyryl-3-t-butyl1,3-propanedione], in data set [1], the “SOLUBILITY SILICONE KF56(10%)” value is “○” and the “SOLUBILITY SQUALANE(10%)” value was “○”.

Turning to `COc1ccc(C(=O)c2ccccc2)c(O)c1` [COMPARISON 1, 2-hydroxy-4-methoxybenzophenone, reference compound], in data set [1], the “SOLUBILITY SILICONE KF56(10%)” value is “DEPOSITION” and the “SOLUBILITY SQUALANE(10%)” value was “DEPOSITION”.

As for `CCCCC(CC)COc1ccc(C=CC(=O)CC(=O)C(C)(C)C)cc1` (stereo not drawn) [Compound 3, 1-p-(2-ethylhexyloxy)styryl-3-t-butyl 1,3-propanedione], the “SOLUBILITY SILICONE KF56(10%)” value in data set [1] is reported as “○”. Moreover, in data set [1], the “SOLUBILITY SQUALANE(10%)” value is reported as “○”. The absorption turned out to be 0.20 in data set [2] (WAVELENGTH 300); 0.28 in data set [2] (WAVELENGTH 310); 0.40 in data set [2] (WAVELENGTH 320); 0.56 in data set [2] (WAVELENGTH 330); 0.76 in data set [2] (WAVELENGTH 340); 0.92 in data set [2] (WAVELENGTH 350). Moreover, the absorption in data set [2] (WAVELENGTH 360) was found to be 0.97; in data set [2] (WAVELENGTH 370), 0.89; in data set [2] (WAVELENGTH 380), 0.65.

`COc1ccc(C=CC(=O)CC(=O)C(C)(C)C)cc1` [Compound 2, 1-p-methoxystyryl-3-t-butyl 1,3-propanedione]: in data set [1], the “SOLUBILITY SILICONE KF56(10%)” value is recorded as “○” and the “SOLUBILITY SQUALANE(10%)” value was “○”.
